Measurements taken from patent US12285011B2, “Insecticidal formulation for vector and pest control with increased contact efficacy” (DISCOVERY PURCHASER CORPORATION, priority 2018, dated 2025).
Read-outs that look alike come from different tables or passages of the source.

Assay: Water solubility at pH 7 (HPLC-MS)
Type: physicochemical
Details: thermodynamic from solid
Protocol: In another preferred embodiment of the invention the insecticidal active ingredient—matrix particles comprise one insecticidal active ingredient with the above indicated physicochemical properties. The melting points according to the invention are measured under standard conditions (1 atmosphere). Water solubility are indicated in percentage referring to the quotient of (g) gram insecticidal active ingredient/100 ml water. Water solubility is preferably measured with liquid chromatography e.g. with a HPLC-MS system (at 20° C., 1 atmosphere and pH 7, see also example 1 as a reference).
The reported water solubilities as shown in table 1 are determined as follows: Preparation of calibration standards: A 1000 ppm solution of the analyte in acetonitrile is prepared and from this at least three calibration points are obtained by dilution with acetonitrile going down to 0.01 mg/L, if needed. Sample Preparation: Two cavities of a deepwell are filled each with about 0.6 mg of homogenized sample and 500 μL of a pH 7 phosphate buffer is added. A glass pearl is added to each cavity, the deepwell is sealed and shaken for at least 24 h at 1600 rpm at 23° C. After the shaking procedure the solution is filtered. Aliquots of the filtrates are analysed via a HPLC-MS system with DAD and MS detection. The peak areas of all selected single DAD and ion traces are taken for the calculations. The calculation is done by external calibration against the areas of the standard samples (linear regression). The mean of all calculated values gives the water solubility of the active ingredient.

[1] = aqueous buffer, pH 7 phosphate buffer, shaken at least 24 h at 23° C., technical grade active ingredient, read-out: water solubility at pH 7

Row | Structure (SMILES) | solubility [1] [µg/mL] | solubility (23 °C, pH 7, aqueous buffer) [µg/mL]
1 | CN(C(=O)c1cc(-c2cnn(-c3c(Cl)cc(C(F)(C(F)(F)F)C(F)(F)F)cc3Cl)c2)cnc1Cl)C1CC1 [2-chloro-N-cyclopropyl-5-{1-[2,6-dichloro-4-(1,1,1,2,3,3,3-heptafluoropropan-2-yl)phenyl]-1H-pyrazol-4-yl}-N-methylnicotinamide] | < 0.01 | –
2 | CCN1OC[C@@H](NC(=O)c2ccc(C3=NO[C@@](c4cc(Cl)c(F)c(Cl)c4)(C(F)(F)F)C3)cc2C)C1=O [4-[(5S)-5-(3,5-dichloro-4-fluorophenyl)-5-(trifluoromethyl)-4,5-dihydro-1,2-oxazol-3-yl]-N-[(4R)-2-ethyl-3-oxo-1,2-oxazolidin-4-yl]-2-methylbenzamide] | – | < 0.01
3 | CN(C(=O)c1ccccc1)c1cccc(C(=O)Nc2c(Br)cc(C(F)(C(F)(F)F)C(F)(F)F)cc2C(F)(F)F)c1F [broflanilide, 3-[benzoyl(methyl)amino]-N-[2-bromo-4-(1,1,1,2,3,3,3-heptafluoropropan-2-yl)-6-(trifluoromethyl)phenyl]-2-fluorobenzamide, reference compound] | < 0.01 | –
